According to the supplement of paper PMC10627819:

How the values were obtained:
[1] = tested on: S. pneumoniae D39V; assay: Bliss interaction score (quartile over a dose matrix) (fitness difference); higher = more antagonism (negative = synergy)
Outline: (§1)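 Fitness here means normalised growth, inferred for single drugs from the combination data. Growth was OD595 at entry into stationary phase, divided by the plate's robust no-drug mean and capped at 1. The Bliss score is observed minus expected fitness, with the expectation being the product, and its quartiles span technical, biological and donor/recipient replicates.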

[2] = tested on: S. aureus Newman; assay: as above
Outline: as §1

[3] = tested on: S. aureus DSM 20231; assay: as above
Outline: as §1

[4] = tested on: B. subtilis 168; assay: as above
Outline: as §1

[5] = tested on: S. pneumoniae D39V; assay: fitness (endpoint OD595 vs no drug) (fraction); higher = more growth
Outline: (§2)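 Growth medium was TSB, LB Lennox or CY, and plates were kept at 37 °C. Inoculation was at OD595 0.01 in 384-well plates, at 30 µl per well or 55 µl for S. pneumoniae. OD595 was monitored every 30 min for 14 h and background-subtracted using the first reading. Fitness is the optical density on entering stationary phase divided by the robust mean of no-drug controls, with values capped at 1.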

[6] = tested on: S. aureus Newman; assay: as above
Outline: as §2

[7] = tested on: S. aureus DSM 20231; assay: as above
Outline: as §2

[8] = tested on: B. subtilis 168; assay: as above
Outline: as §2
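Throughout, for Bliss interaction score (quartile over a dose matrix): first quartile when negative (synergy) and third quartile when positive (antagonism).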
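Throughout, for fitness (endpoint OD595 vs no drug): OD595 on entry to stationary phase over no-drug wells; at most 1.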

CCC[C@@H]1C[C@@H](C(=O)N[C@@H]([C@H]2O[C@H](SC)[C@H](O)[C@@H](O)[C@H]2O)[C@H](C)Cl)N(C)C1 [Clindamycin] + C[n+]1ccc(-c2cc[n+](C)cc2)cc1 [Paraquat]
Conditions | Bliss interaction score
[1] | 0.0554
[2] | -0.112
[3] | -0.0477
[4] | 0.0483

fitness
Conditions | partner 1.25 µg/mL | partner 1.5 µg/mL | partner 2.5 µg/mL | partner 3 µg/mL | partner 5 µg/mL | partner 6 µg/mL
[5], first compound 0.0125 µg/mL | – | 0.744 | – | 0.749 | – | 0.733
[5], first compound 0.025 µg/mL | – | 0.489 | – | 0.482 | – | 0.458
[5], first compound 0.05 µg/mL | – | 0.24 | – | 0.228 | – | 0.195
[6], first compound 0.0312 µg/mL | 0.607 | – | 0.57 | – | 0.516 | –
[6], first compound 0.0625 µg/mL | 0.271 | – | 0.241 | – | 0.207 | –
[6], first compound 0.125 µg/mL | 0.0526 | – | 0.0427 | – | 0.0913 | –
[7], first compound 0.0625 µg/mL | 0.181 | – | 0.192 | – | 0.14 | –
[7], first compound 0.125 µg/mL | 0.0613 | – | 0.113 | – | 0.0771 | –
[8], first compound 0.0625 µg/mL | 0.607 | – | 0.513 | – | 0.512 | –
[8], first compound 0.125 µg/mL | 0.392 | – | 0.366 | – | 0.359 | –
[8], first compound 0.25 µg/mL | 0.363 | – | 0.352 | – | 0.281 | –

fitness, one replicate
Conditions | first compound 0.0039 µg/mL | first compound 0.0078 µg/mL | first compound 0.015 µg/mL | first compound 0.0156 µg/mL | first compound 0.03 µg/mL | first compound 0.06 µg/mL
[5], partner 1.5 µg/mL | – | – | 0.934 | – | 0.85 | 0.692
[5], partner 3 µg/mL | – | – | 0.949 | – | 0.92 | 0.763
[5], partner 6 µg/mL | – | – | ≥ 1 | – | 0.914 | 0.805
[8], partner 1.25 µg/mL | ≥ 1 | 0.914 | – | 0.847 | – | –
[8], partner 2.5 µg/mL | 0.958 | 0.846 | – | 0.857 | – | –
[8], partner 5 µg/mL | 0.972 | 0.873 | – | 0.83 | – | –

COc1c(N2C[C@@H]3CCCN[C@@H]3C2)c(F)cc2c(=O)c(C(=O)O)cn(C3CC3)c12 [Moxifloxacin] + Cc1cc(NS(=O)(=O)c2ccc(N)cc2)no1 [Sulfamethoxazol]
Conditions | Bliss interaction score
[1] | -0.0536
[2] | -0.071
[3] | -0.0783
[4] | -0.0331

one replicate
Conditions | fitness
[5], first compound 0.0037 µg/mL, partner 1 µg/mL | 0.897
[5], first compound 0.0037 µg/mL, partner 2 µg/mL | 0.856
[5], first compound 0.0037 µg/mL, partner 4 µg/mL | 0.797
[5], first compound 0.0075 µg/mL, partner 1 µg/mL | 0.869
[5], first compound 0.0075 µg/mL, partner 2 µg/mL | 0.857
[5], first compound 0.0075 µg/mL, partner 4 µg/mL | 0.797
[5], first compound 0.015 µg/mL, partner 1 µg/mL | 0.842
[5], first compound 0.015 µg/mL, partner 2 µg/mL | 0.828
[5], first compound 0.015 µg/mL, partner 4 µg/mL | 0.79
[6], first compound 0.0075 µg/mL, partner 8 µg/mL | 0.934
[6], first compound 0.015 µg/mL, partner 8 µg/mL | 0.887
[6], first compound 0.03 µg/mL, partner 8 µg/mL | 0.784
[7], first compound 0.06 µg/mL, partner 1 µg/mL | 0.669
[7], first compound 0.06 µg/mL, partner 2 µg/mL | 0.655
[7], first compound 0.06 µg/mL, partner 4 µg/mL | 0.655
[7], first compound 0.12 µg/mL, partner 1 µg/mL | 0.445
[7], first compound 0.12 µg/mL, partner 2 µg/mL | 0.44
[7], first compound 0.12 µg/mL, partner 4 µg/mL | 0.431
[8], first compound 0.0312 µg/mL, partner 0.5 µg/mL | 0.0261
[8], first compound 0.0625 µg/mL, partner 0.5 µg/mL | 0.034
[8], first compound 0.125 µg/mL, partner 0.5 µg/mL | 0.0283

fitness
Conditions | partner 1 µg/mL | partner 2 µg/mL | partner 4 µg/mL
[5], first compound 0.005 µg/mL | 0.944 | 0.969 | 0.958
[5], first compound 0.01 µg/mL | 0.949 | 0.955 | 0.987
[5], first compound 0.02 µg/mL | 0.894 | 0.912 | 0.926
[6], first compound 0.0075 µg/mL | 0.776 | 0.795 | 0.749
[7], first compound 0.0075 µg/mL | 0.78 | 0.829 | 0.765
[7], first compound 0.015 µg/mL | 0.69 | 0.724 | 0.76
[7], first compound 0.03 µg/mL | 0.586 | 0.682 | 0.692
[8], first compound 0.0312 µg/mL | 0.0226 | 0.0442 | 0.0303
[8], first compound 0.0625 µg/mL | 0.0292 | 0.0328 | 0.0239
[8], first compound 0.125 µg/mL | 0.0176 | 0.0212 | 0.0185
[8], first compound 2 µg/mL | 0.0112 | 0.0253 | 0.0113
[8], first compound 4 µg/mL | 0.0152 | 0.0241 | 0.0125
[8], first compound 8 µg/mL | 0.0212 | 0.0227 | 0.0093
